# Assay results published in patent US4137311A, “Synergistic compositions and method of use” (William H. Rorer, Inc., priority 1977, dated 1979).
# Counter-ions that a name gives are not always drawn.
# Experiments:
# [1] = tested on: Croton-Oil Induced Inflammation To The Mouse's Ear; assay: Immediate co-administration: croton-oil induced inflammation of the mouse's ear (Table I), edema weight and percent inhibition; settings: immediate application; for Ear edema weight (± S.D.): control 16.9±3.0
# Method: Mathematical determination of the synergistic effects of combinations of bis-(2-pyridyl-1-oxide) disulfide magnesium sulfate and hydrocortisone was done using a modification of the method described by Van Arman, C.
# (§1) Hydrocortisone and bis-(2-pyridyl-1-oxide) disulfide magnesium sulfate were suspended or dissolved in ethanol U.S.P. (200 proof) at concentrations of 20, 40 and 80 mg/ml of bis-(2-pyridyl-1-oxide) disulfide magnesium sulfate and 0.01, 1 and 10 mg of hydrocortisone.
# (§2) Four hours after application of the irritant vehicle (three hours after drug application) both ears were amputated and one circular section was exercised from each ear using a No. 4 cork borer (7 mm i.d.). The ear sections were then weighed. The increase in weight due to edema formation caused by the croton oil in the treated ear and reduction of the edema caused by treatment with bis-(2-pyridyl-1-oxide) disulfide magnesium sulfate hydrocortisone or combinations thereof was determined by subtracting the weight of the untreated right ear section from that of the treated left ear section.
# Ethanol was used as the vehicle; pyridine contained in the usual irritant vehicle as described previously produces an alkaline reaction. Controls were treated with only the croton oil vehicle.
# A fixed dose of 4 mg/ear of bis-(2-pyridyl-1-oxide) disulfide magnesium sulfate was co-applied with 0.01, 0.1 and 1 mg/ear of hydrocortisone.
# [2] = tested on: Croton-Oil Induced Inflammation To The Mouse's Ear; assay: Delayed co-application to existing croton-oil induced inflammation of the mouse's ear (Table II), edema weight and percent inhibition; settings: for Ear edema weight (± S.D.): control 14.9±3.8
# Method: as §1
# Groups of mice treated with only the croton oil irritant solution served as controls. The right ear of mice in any group was not treated.
# as §2
# [3] = Solubility in ethanol U.S.P. (200 proof)
# [4] = hydrocortisone alone 0.1 mg/ear
# [5] = hydrocortisone alone 1.0 mg/ear
# [6] = delayed application, hydrocortisone (free alcohol) alone 0.01 mg/ear
# [7] = delayed application, hydrocortisone (free alcohol) alone 0.1 mg/ear
# [8] = delayed application, hydrocortisone (free alcohol) alone 1.0 mg/ear
# [9] = adduct alone, topical dose 4 mg/ear
# [10] = delayed application, adduct alone 4 mg/ear
# [11] = delayed application, adduct alone 8 mg/ear
smiles,measurement,setting,value
C[C@]12CCC(=O)C=C1CC[C@@H]1[C@@H]2[C@@H](O)C[C@@]2(C)[C@H]1CC[C@]2(O)C(=O)CO [Hydrocortisone],Percent inhibition of ear edema,[1]; hydrocortisone alone 0.01 mg/ear (Table I),23.1%
same,Ear edema weight (± S.D.),[1]; hydrocortisone alone 0.01 mg/ear,13.0 ± 3.8 mg
same,Percent inhibition of ear edema,[1]; [4],53.3%
same,Ear edema weight (± S.D.),[1]; [4],7.9 ± 2.3 mg
same,Percent inhibition of ear edema,[1]; [5],67.5%
same,Ear edema weight (± S.D.),[1]; [5],5.5 ± 2.6 mg
same,inhibition,"[1]; hydrocortisone alone, dose printed in text 0.01 mg/ear",53.3%
same,Percent inhibition of ear edema,[2]; [6],17.5%
same,Ear edema weight (± S.D.),[2]; [6],12.3 ± 3.3 mg
same,Percent inhibition of ear edema,[2]; [7],40.3%
same,Ear edema weight (± S.D.),[2]; [7],8.9 ± 2.3 mg
same,Percent inhibition of ear edema,[2]; [8],58.4%
same,Ear edema weight (± S.D.),[2]; [8],6.2 ± 2.4 mg
same,dose of hydrocortisone by itself necessary to achieve a similar response (46.3%),"[2]; delayed application, hydrocortisone alone",0.25 mg/ear
same,expected anti-inflammatory response by extrapolation of dose-response line,[2]; hydrocortisone by itself 0.00125 mg/ear,"little, if any, significant anti-inflammatory response"
[O-][n+]1ccccc1SSc1cccc[n+]1[O-] [bis-(2-pyridyl-1-oxide) disulfide magnesium sulfate],Percent inhibition of ear edema,[1]; [9],24.9%
same,Ear edema weight (± S.D.),[1]; [9],12.7 ± 3.0 mg
same,expected anti-inflammatory response by extrapolation of dose-response line,[2]; adduct by itself 0.87 mg/ear,"little, if any, significant anti-inflammatory response"
same,Ear edema weight (± S.D.),"[2]; delayed application, 1 hour after croton oil, adduct alone 2 mg/ear",12.7 ± 2.4 mg
same,dose of adduct by itself necessary to achieve a similar response (46.3%),"[2]; delayed application, adduct alone",17.7 mg/ear
same,Percent inhibition of ear edema,"[2]; delayed application, adduct alone 2 mg/ear",14.8%
same,Percent inhibition of ear edema,[2]; [10],23.5%
same,Ear edema weight (± S.D.),[2]; [10],11.4 ± 2.8 mg
same,Percent inhibition of ear edema,[2]; [11],35.6%
same,Ear edema weight (± S.D.),[2]; [11],9.6 ± 2.2 mg
same,solubility in the alcohol vehicle,[3],formed a fine suspension
